One test deals with Uncinula necator. The test can be described thus: Uncinula test (vine)/protective. The format is in vivo. To be noted: protective spray, application rate 10 g/ha, evaluation 14 days after inoculation.
For a further test, the system named is Pyricularia oryzae. The format is in vivo. To be noted: rice, protective spray, application rate 375 g/ha, evaluation 4 days after inoculation.
A further test relates to Venturia inaequalis. The test can be described thus: Venturia test (apple)/curative. To be noted: curative spray, application rate 1 g/ha, evaluation 12 days after inoculation.
In a further test the test system is Cochliobolus sativus. The test can be described thus: Cochliobolus sativus test (barley)/protective. To be noted: protective spray, evaluation 7 days after inoculation.
The next test relates to Podosphaera leucotricha. The test can be described thus: Podosphaera test (apple)/protective. To be noted: protective spray, application rate 10 g/ha, evaluation 10 days after inoculation. The format is in vivo.

This is an account of results in patent publication US8188129B2, “(−)-enantiomer of the 2-[2-(1-chloro-cyclopropyl)-3-(2-chlorophenyl)-2-hydroxypropyl]-2,4-dihydro-[1,2,4]-triazole-3-thione” (Bayer Aktiengesellschaft, priority 1999, dated 2012).

Procedure for Cochliobolus sativus: After the spray coating has dried on, the plants are sprayed with a conidia suspension of Cochiliobolus sativus. The plants remain in an incubation cabin at 20° C. and 100% relative atmospheric humidity for 48 hours.
The plants are placed in a greenhouse at a temperature of 20° C. and a relative atmospheric humidity of approximately 80%.
Evaluation is carried out 7 days after the inoculation.
Procedure for Venturia inaequalis: To test for curative activity, young plants are inoculated with an aqueous conidia suspension of the apple scab pathogen Venturia inaequalis. The plants remain in an incubation cabin at approximately 20° C. and 100% relative atmospheric humidity for 1 day and are then placed in a greenhouse.
The plants are then placed in a greenhouse at approximately 21° C. and a relative atmospheric humidity of approximately 90%.
Evaluation is carried out 12 days after the inoculation.

As to `OC(Cc1ccccc1Cl)(Cn1nc[nH]c1=S)C1(Cl)CC1` (racemic) [(Ia), racemic 2-[2-(1-chloro-cyclopropyl)-3-(2-chloro-phenyl)-2-hydroxypropyl]-2,4-dihydro-[1,2,4]-triazole-3-thione], the Efficacy in % amounted to 47% with Uncinula necator; 30% in the test with Pyricularia oryzae; 79% with Venturia inaequalis; 59% in the test with Cochliobolus sativus (application rate 125 g/ha); 66% with Cochliobolus sativus (application rate 250 g/ha); 60% with Podosphaera leucotricha.
Regarding `OC(Cc1ccccc1Cl)(Cn1nc[nH]c1=S)C1(Cl)CC1` (single isomer, unassigned; (-)) [(I), (−)-enantiomer of 2-[2-(1-chloro-cyclopropyl)-3-(2-chlorophenyl)-2-hydroxypropyl]-2,4-dihydro-[1,2,4]-triazole-3-thione], the Efficacy in % came out at 84% in the test with Uncinula necator; 90% in the test on Pyricularia oryzae; 91% with Venturia inaequalis; 75% in the test on Cochliobolus sativus (application rate 125 g/ha); 75% in the test on Cochliobolus sativus (application rate 250 g/ha); 78% in the test with Podosphaera leucotricha.
